# Reference: paper PMC2806602 (The Journal of neuroscience : the official journal of the …, 2009)
# Where a chain is given by its changes, count along the chain named. Like-named read-outs stand apart in the source and are kept apart here.
# Experiments:
# GluRδ2^Lc = target: T1, GluRδ2^Lc (Rattus norvegicus, UniProt Q63226, A654T); format: cell-based
# T1 sequence (Q63226 24-1007 A654T): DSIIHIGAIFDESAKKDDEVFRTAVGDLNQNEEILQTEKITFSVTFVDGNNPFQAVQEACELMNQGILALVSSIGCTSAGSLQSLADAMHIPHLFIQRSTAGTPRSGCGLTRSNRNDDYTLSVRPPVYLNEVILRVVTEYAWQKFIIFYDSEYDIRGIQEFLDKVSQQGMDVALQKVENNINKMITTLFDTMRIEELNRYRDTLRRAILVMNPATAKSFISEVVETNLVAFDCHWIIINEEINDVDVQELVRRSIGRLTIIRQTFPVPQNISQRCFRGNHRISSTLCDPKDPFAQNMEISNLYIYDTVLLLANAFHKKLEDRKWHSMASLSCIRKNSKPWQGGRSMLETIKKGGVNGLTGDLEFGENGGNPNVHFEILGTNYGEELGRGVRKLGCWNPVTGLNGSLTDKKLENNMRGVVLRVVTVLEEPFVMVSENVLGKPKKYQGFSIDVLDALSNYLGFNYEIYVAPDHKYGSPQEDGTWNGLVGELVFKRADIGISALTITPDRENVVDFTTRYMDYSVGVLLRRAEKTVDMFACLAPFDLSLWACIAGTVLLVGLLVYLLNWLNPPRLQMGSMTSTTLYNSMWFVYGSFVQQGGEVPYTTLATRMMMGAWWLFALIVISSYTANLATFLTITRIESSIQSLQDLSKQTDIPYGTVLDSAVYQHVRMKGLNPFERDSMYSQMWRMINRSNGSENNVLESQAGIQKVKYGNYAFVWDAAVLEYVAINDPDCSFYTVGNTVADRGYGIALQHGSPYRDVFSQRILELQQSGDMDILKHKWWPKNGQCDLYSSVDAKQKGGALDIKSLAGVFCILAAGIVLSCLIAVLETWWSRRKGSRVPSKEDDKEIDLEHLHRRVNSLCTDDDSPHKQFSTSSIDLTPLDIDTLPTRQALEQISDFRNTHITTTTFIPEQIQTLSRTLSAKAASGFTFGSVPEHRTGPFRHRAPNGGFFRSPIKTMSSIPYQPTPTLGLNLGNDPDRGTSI
# [1] = target: T2, GluRδ2^Wt P528C+L789C+C811S (Rattus norvegicus, UniProt Q63226, C811S/L789C/P528C); format: cell-based; details: data not shown
# T2 sequence (Q63226 24-1007 P528C/L789C/C811S): T1 sequence (Q63226 24-1007 A654T) with P505C, T631A, L766C, C788S
Compound,spontaneously active current relative to baseline with Ba^2+ (GluRδ2^Lc; 0.5 mM Ba^2+ exchanged with 0.5 mM of the divalent cation),"Ca^2+ potentiation (relative to baseline) (GluRδ2^Lc; 3 mM Ca^2+, baseline spontaneously active current, ± SEM) [fold]","maximal fold potentiation relative to baseline spontaneously active currents (GluRδ2^Lc; Ca^2+ concentration-response, fitted maximum) [fold]",nH of reduction of D-serine potency by extracellular Ca^2+ (GluRδ2^Lc; Hill coefficient),"nH of Ca^2+ potentiation of GluRδ2^Lc currents (GluRδ2^Lc; Hill coefficient, in the absence of D-serine)","nH of Ca^2+ potentiation of GluRδ2^Lc currents (GluRδ2^Lc; Hill coefficient, in the presence of 1 mM D-serine)","EC50 (GluRδ2^Lc; read-out: EC50 of Ca^2+ to potentiate GluRδ2^Lc currents, in the presence of 1 mM D-serine) [µM]","EC50 (GluRδ2^Lc; read-out: EC50 of Ca^2+ to potentiate spontaneously active GluRδ2^Lc currents, in the absence of D-serine) [µM]","D-serine + 0 mM Ca^2+ nH (GluRδ2^Lc; Hill slope, 0 mM Ca^2+)","D-serine + 3 mM Ca^2+ nH (GluRδ2^Lc; Hill slope, 3 mM Ca^2+)",response to D-serine [1]
"[Ca+2] [Ca^2+, calcium]",3.91 ± 0.22,3.8 ± 0.23,4.1 ± 0.2,1.3,1.7,2.3,676 ± 13,205 ± 7,,,
N[C@H](CO)C(=O)O [D-serine],,,,,,,,,1.0,2.1,Neither the C811S mutation nor the triple P528C+L789C+C811S mutation resulted in measurable responses
